Calls of active or inactive are those of the source.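 Rule for the calls: active = mean IC50 for reducing PEG3 promoter reporter signal at or below a set limit, with IC50 above the limit in both counter screens; inactive = the rest, including counter screen hits.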

For one experiment, the system named is Rat fibroblasts (CREF). The experiment in a line: Peg3 promoter luciferase inhibitors, potency, dose response, cell-based, HeLa, CREF/GAPDH counter-screen panel (AID 624167). The note with it: CREF/GAPDH counter-screens. (The purpose of a counterscreen is to sort out artefacts and off-target activity.)
For a further experiment, the system named is GAPDH. The description is as above. The settings on record: CREF/GAPDH counter-screens.
Assay in experiment [1]: as above
The note with it: CREF/GAPDH counter-screens; GAPDH; mean of runs.

In experiment [2] the test system is PEG-3. The description is as above. The settings on record: HeLa PEG-Prom luciferase reporter, overnight, CREF/GAPDH counter-screens. Background: Reporter assays use an easily measured gene product as a stand-in for the process of interest.
Experiment [3] has as its target PEG-3 (UniProt Q6IN02). The experiment is described as above. The note with it: HeLa PEG-Prom luciferase reporter, overnight, CREF/GAPDH counter-screens, mean of runs.
Where [4] appears, read: run 1, dose range 1, individual replicate IC50 per panel.
Setting [5] is: run 2, dose range 1, individual replicate IC50 per panel.

Sequence of PEG-3 (UniProt Q6IN02) (Q6IN02 whole entry, looked up): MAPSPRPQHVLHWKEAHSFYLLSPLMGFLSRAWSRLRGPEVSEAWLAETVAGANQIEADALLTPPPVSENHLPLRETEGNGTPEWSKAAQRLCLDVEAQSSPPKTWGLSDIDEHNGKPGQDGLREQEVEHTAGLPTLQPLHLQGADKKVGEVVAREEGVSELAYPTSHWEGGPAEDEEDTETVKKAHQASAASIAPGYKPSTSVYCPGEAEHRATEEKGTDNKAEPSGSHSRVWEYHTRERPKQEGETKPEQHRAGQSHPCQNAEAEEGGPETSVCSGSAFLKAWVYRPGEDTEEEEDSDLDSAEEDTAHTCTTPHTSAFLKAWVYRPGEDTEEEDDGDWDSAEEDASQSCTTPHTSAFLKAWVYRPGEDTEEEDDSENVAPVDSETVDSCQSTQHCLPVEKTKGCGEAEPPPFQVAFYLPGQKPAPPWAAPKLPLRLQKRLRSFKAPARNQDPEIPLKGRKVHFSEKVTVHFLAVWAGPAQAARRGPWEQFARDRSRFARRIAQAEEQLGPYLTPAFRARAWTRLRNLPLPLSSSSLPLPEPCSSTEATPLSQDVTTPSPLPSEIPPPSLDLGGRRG

On to `Cc1ccc(NC(=S)NC(=O)c2ccc(F)cc2)cc1S(=O)(=O)Nc1ccccc1Cl`, for which the IC50 was 50.7 µM (inactive) with Rat fibroblasts (CREF) (mean of runs); greater than 100 µM with Rat fibroblasts (CREF) (setting [4]); 1.35 µM in the experiment with Rat fibroblasts (CREF) (setting [5]); 44.2 µM in the experiment with GAPDH (setting [4]); 41 µM with GAPDH (setting [5]); 4.15 µM with PEG-3 [2] (setting [4]). Moreover, the IC50 was 3.56 µM in the experiment with PEG-3 [2] (setting [5]) and 3.86 µM at PEG-3 [3]. The IC50 entry in experiment [1] is “inactive”.
For the compound `CC1=CC2C(C(O)CC3(C)C2CC(C)C32OCOC23COCO3)C2(C)C/C(=C\O)C(=O)C=C12` (stereo unspecified), the IC50 in the experiment with Rat fibroblasts (CREF) (mean of runs) is 8.5 µM; in the experiment on Rat fibroblasts (CREF) (setting [4]), 7.69 µM; with Rat fibroblasts (CREF) (setting [5]) it was 9.3 µM; with GAPDH (setting [4]), 7.69 µM; in the experiment with GAPDH (setting [5]), 10.6 µM; in experiment [1], 9.16 µM. The IC50 with PEG-3 [2] (setting [4]) was 7.13 µM; with PEG-3 [2] (setting [5]), 5.01 µM; at PEG-3 [3], 6.07 µM.
Consider `CCc1ccc(/C=C2\SC(=S)N(CCCC(=O)Nc3ccccn3)C2=O)cc1`, for which the IC50 was 50.2 µM (inactive) with Rat fibroblasts (CREF) (mean of runs); greater than 100 µM with Rat fibroblasts (CREF) (setting [4]); 0.313 µM in the experiment with Rat fibroblasts (CREF) (setting [5]); 15.6 µM with GAPDH (setting [4]); 40.1 µM with GAPDH (setting [5]); 27.8 µM in experiment [1]. Besides, the IC50 was 5.21 µM in the experiment on PEG-3 [2] (setting [4]), 2.85 µM in the experiment on PEG-3 [2] (setting [5]) and 4.03 µM at PEG-3 [3].
On to `COc1ccc(-n2c(O)c(/C=N/Nc3nc(C)cc(C)n3)c3ccccc3c2=O)cc1OC`, for which the IC50 was 50.9 µM (inactive) in the experiment on Rat fibroblasts (CREF) (mean of runs); 44.5 µM in the experiment on Rat fibroblasts (CREF) (setting [4]); 57.3 µM in the experiment on Rat fibroblasts (CREF) (setting [5]); greater than 100 µM with GAPDH (setting [4]); greater than 100 µM with GAPDH (setting [5]); > 100 µM (inactive) in experiment [1]. Further, the IC50 in the experiment with PEG-3 [2] (setting [4]) was 2.71 µM; in the experiment on PEG-3 [2] (setting [5]) it was 7.28 µM; on PEG-3 [3] it was 4.99 µM.
As to `COc1cccc(OC)c1C(=O)Nc1cc(C)nn1-c1nc2ccccc2[nH]1`, the IC50 with Rat fibroblasts (CREF) (mean of runs) was > 100 µM (inactive); in the experiment with Rat fibroblasts (CREF) (setting [4]) it was greater than 100 µM; in the experiment on Rat fibroblasts (CREF) (setting [5]), greater than 100 µM; with GAPDH (setting [4]), greater than 100 µM; in the experiment on GAPDH (setting [5]), greater than 100 µM; in experiment [1], > 100 µM (inactive). Besides, the IC50 with PEG-3 [2] (setting [4]) was 2.08 µM; in the experiment with PEG-3 [2] (setting [5]) it was 4.13 µM; at PEG-3 [3], 3.1 µM.
Regarding `Cc1ccccc1CNC(=O)C1CCCN(c2nnc(C)c3c(C)n(-c4ccccc4)nc23)C1` (stereo unspecified), the IC50 in the experiment with Rat fibroblasts (CREF) (mean of runs) is 19.8 µM; in the experiment with Rat fibroblasts (CREF) (setting [4]), 23.9 µM; in the experiment on Rat fibroblasts (CREF) (setting [5]), 15.6 µM; in the experiment on GAPDH (setting [4]) it was 41.3 µM; in the experiment on GAPDH (setting [5]), 25.2 µM; with PEG-3 [2] (setting [4]) it was 14.6 µM. Besides, the IC50 is 6.15 µM in the experiment on PEG-3 [2] (setting [5]) and 10.4 µM at PEG-3 [3]. Besides, the IC50 result in experiment [1] is “inactive”.
Turning to `O=c1cc(-c2ccc(O)cc2)oc2ccc3ccccc3c12`, the IC50 is 1.23 µM in the experiment with Rat fibroblasts (CREF) (mean of runs); 0.883 µM in the experiment with Rat fibroblasts (CREF) (setting [4]); 1.57 µM in the experiment with Rat fibroblasts (CREF) (setting [5]); 4.65 µM in the experiment on PEG-3 [2] (setting [4]); 3.52 µM with PEG-3 [2] (setting [5]); 4.08 µM on PEG-3 [3].
For `COC(=O)Cc1[nH]n(-c2nc3ccccc3s2)c(=O)c1C(C)=Nc1ccc(C)cc1`, the IC50 in the experiment with Rat fibroblasts (CREF) (mean of runs) is 14.8 µM; in the experiment on Rat fibroblasts (CREF) (setting [4]), 25.2 µM; in the experiment on Rat fibroblasts (CREF) (setting [5]), 4.52 µM; in the experiment with PEG-3 [2] (setting [4]) it was 0.98 µM; with PEG-3 [2] (setting [5]) it was 0.751 µM; at PEG-3 [3] it was 0.865 µM.
`O=C(Nc1ncc([N+](=O)[O-])s1)c1ccc2c(c1)OCO2`: the IC50 is 10.8 µM with Rat fibroblasts (CREF) (mean of runs); 8.9 µM in the experiment with Rat fibroblasts (CREF) (setting [4]); 12.8 µM with Rat fibroblasts (CREF) (setting [5]); 2.01 µM with PEG-3 [2] (setting [4]); 2.41 µM with PEG-3 [2] (setting [5]); 2.21 µM on PEG-3 [3].
On to `CN(C)CCCN(C(=O)c1ccc(S(=O)(=O)N2CCc3ccccc3C2)cc1)c1nc2ccc(F)cc2s1`, for which the half-maximal inhibitory concentration (IC50) with Rat fibroblasts (CREF) (mean of runs) is 13.4 µM; in the experiment on Rat fibroblasts (CREF) (setting [4]), 9.84 µM; with Rat fibroblasts (CREF) (setting [5]), 17 µM; in the experiment with PEG-3 [2] (setting [4]) it was 11.3 µM; in the experiment with PEG-3 [2] (setting [5]) it was 8.74 µM; at PEG-3 [3], 10 µM.
On to `Cc1cc(C2=NNC(=NC3CC3)SC2)c(C)n1-c1ccccc1F`, for which the IC50 in the experiment with Rat fibroblasts (CREF) (mean of runs) is 3.3 µM; with Rat fibroblasts (CREF) (setting [4]), 2.72 µM; in the experiment on Rat fibroblasts (CREF) (setting [5]), 3.89 µM; in the experiment with PEG-3 [2] (setting [4]) it was less than 0.2 µM; in the experiment with PEG-3 [2] (setting [5]) it was less than 0.2 µM; at PEG-3 [3] it was less than 0.2 µM.
`COc1ccc2c(c1)sc1nc(-c3ccccc3)cn12`: the IC50 in the experiment on Rat fibroblasts (CREF) (mean of runs) is 0.403 µM; with Rat fibroblasts (CREF) (setting [4]) it was 0.323 µM; in the experiment on Rat fibroblasts (CREF) (setting [5]), 0.484 µM; in the experiment on PEG-3 [2] (setting [4]), 2.46 µM; in the experiment on PEG-3 [2] (setting [5]), 1.7 µM; at PEG-3 [3], 2.08 µM.
Consider `COC(CNC(=O)c1ccc2c3c(onc13)-c1ccccc1C2=O)OC`, for which the IC50 in the experiment with Rat fibroblasts (CREF) (mean of runs) is 18.4 µM; in the experiment with Rat fibroblasts (CREF) (setting [4]) it was 17.6 µM; with Rat fibroblasts (CREF) (setting [5]), 19.2 µM; with PEG-3 [2] (setting [4]), 9.32 µM; in the experiment with PEG-3 [2] (setting [5]), 5.65 µM; on PEG-3 [3] it was 7.48 µM.

The IC50 is the concentration that gives 50% inhibition.

The values above are taken from PubChem BioAssay AID624167 (Sanford-Burnham Center for Chemical Genomics, 2012).
